Earlier results as cited in US9326524B1, “Insect repellent compositions” (Nantucket Spider, LLC, priority 2014, dated 2016).

Test system: mosquitoes
Settings: compared with naturally derived PMD in the form of OLE

In the case of `CC1CCC(C(C)(C)O)C(O)C1` (stereo not shown) [Pure PMD, p-Menthane-3,8-diol], the “efficacy in repelling mosquitoes” value is listed as “significantly less efficacious”.
